ChEMBL document CHEMBL5316379, “Potent and Selective BCL-XL Inhibitors and PROTAC Compounds as Potential Cancer Treatment and Immunotherapy” (ACS Med Chem Lett, 2023)

Key:
[1] = molecular target: von Hippel-Lindau disease tumor suppressor/Bcl-2-like protein 1 (Homo sapiens, UniProt P40337+Q07817); experiment: Protac activity at VHL/BCL-xl in human NCI-H1650 cells assessed as induction of BCL-xl degradation by Nano-Glo HiBiT assay; assay type: cell-based
[2] = system: EBC-1; experiment: Growth inhibition of human EBC-1 cells assessed as cell viability incubated for 5 days by CellTiter-Glo assay; assay type: functional; details: EBC-1, 120 h, time 5 day

Chain of von Hippel-Lindau disease tumor suppressor/Bcl-2-like protein 1 (Q07817 whole entry): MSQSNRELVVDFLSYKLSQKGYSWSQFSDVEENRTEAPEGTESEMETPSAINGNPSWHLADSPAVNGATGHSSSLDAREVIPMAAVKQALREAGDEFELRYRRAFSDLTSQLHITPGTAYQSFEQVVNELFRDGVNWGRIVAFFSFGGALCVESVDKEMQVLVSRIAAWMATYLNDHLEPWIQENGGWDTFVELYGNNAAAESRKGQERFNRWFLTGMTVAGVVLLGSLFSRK
Chain of von Hippel-Lindau disease tumor suppressor/Bcl-2-like protein 1 (P40337 whole entry): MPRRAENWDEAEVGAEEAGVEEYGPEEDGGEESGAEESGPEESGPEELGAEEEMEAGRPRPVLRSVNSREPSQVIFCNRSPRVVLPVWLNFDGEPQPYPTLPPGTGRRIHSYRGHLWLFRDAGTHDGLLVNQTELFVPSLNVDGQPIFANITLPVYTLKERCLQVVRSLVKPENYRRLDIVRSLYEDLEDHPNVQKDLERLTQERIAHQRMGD

| Structure (SMILES) | EC50 [1] | GI50 [2] |
| --- | --- | --- |
| Cc1ncsc1-c1ccc([C@H](C)NC(=O)[C@@H]2C[C@@H](O)CN2C(=O)[C@@H](NC(=O)CCCCCCCCCCCCCN(C)CCOC23C[C@@]4(C)C[C@@](C)(C2)C[C@@](Cn2ncc(-c5ccc(N6CCCc7c6nnc(Nc6nc8ccccc8s6)c7C)nc5C(=O)O)c2C)(C3)C4)C(C)(C)C)cc1 | – | 1 nM |
| Cc1ncsc1-c1ccc([C@H](C)NC(=O)[C@@H]2C[C@@H](O)CN2C(=O)[C@@H](NC(=O)CCCCCCCN(C)CCOC23C[C@@]4(C)C[C@@](C)(C2)C[C@@](Cn2ncc(-c5ccc(N6CCCc7c6nnc(Nc6nc8ccccc8s6)c7C)nc5C(=O)O)c2C)(C3)C4)C(C)(C)C)cc1 | 3 nM | 13 nM |
| Cc1ncsc1-c1ccc([C@H](C)NC(=O)[C@@H]2C[C@@H](O)CN2C(=O)[C@@H](NC(=O)CCCCCCN(C)CCOC23C[C@@]4(C)C[C@@](C)(C2)C[C@@](Cn2ncc(-c5ccc(N6CCCc7c6nnc(Nc6nc8ccccc8s6)c7C)nc5C(=O)O)c2C)(C3)C4)C(C)(C)C)cc1 | 3 nM | 9 nM |
| Cc1ncsc1-c1ccc([C@H](C)NC(=O)[C@@H]2C[C@@H](O)CN2C(=O)[C@@H](NC(=O)CCCCCCCCN(C)CCOC23C[C@@]4(C)C[C@@](C)(C2)C[C@@](Cn2ncc(-c5ccc(N6CCCc7c6nnc(Nc6nc8ccccc8s6)c7C)nc5C(=O)O)c2C)(C3)C4)C(C)(C)C)cc1 | 2 nM | 23 nM |
| Cc1ncsc1-c1ccc([C@H](C)NC(=O)[C@@H]2C[C@@H](O)CN2C(=O)[C@@H](NC(=O)CCCCCCCCCCCCCCN(C)CCOC23C[C@@]4(C)C[C@@](C)(C2)C[C@@](Cn2ncc(-c5ccc(N6CCCc7c6nnc(Nc6nc8ccccc8s6)c7C)nc5C(=O)O)c2C)(C3)C4)C(C)(C)C)cc1 | 1 nM | 2 nM |

More lines, main results first:

| EC50 [1] | Structure (SMILES) | GI50 [2] |
| --- | --- | --- |
| 1 nM | Cc1ncsc1-c1ccc([C@H](C)NC(=O)[C@@H]2C[C@@H](O)CN2C(=O)[C@@H](NC(=O)CCCCCCCCCCCCCCCN(C)CCOC23C[C@@]4(C)C[C@@](C)(C2)C[C@@](Cn2ncc(-c5ccc(N6CCCc7c6nnc(Nc6nc8ccccc8s6)c7C)nc5C(=O)O)c2C)(C3)C4)C(C)(C)C)cc1 | 5 nM |
| 1 nM | Cc1ncsc1-c1ccc([C@H](C)NC(=O)[C@@H]2C[C@@H](O)CN2C(=O)[C@@H](NC(=O)CCCCCCCCCCCN(C)CCOC23C[C@@]4(C)C[C@@](C)(C2)C[C@@](Cn2ncc(-c5ccc(N6CCCc7c6nnc(Nc6nc8ccccc8s6)c7C)nc5C(=O)O)c2C)(C3)C4)C(C)(C)C)cc1 | 13 nM |
